From patent US20250333418A1, “PURINE COMPOUNDS, COMPOSITIONS COMPRISING THEM AND USES THEREOF” (Novo Nordisk A/S, priority 2022, published 2025)

Key:
human CB1 receptor [1] = molecular target: T1, human CB1 receptor (Homo sapiens, UniProt P21554); assay: bioSensAll GAPL-Gi2 BRET biosensor assay in HEK293 cells transfected with hCB1; test compound added before EC75-80 of agonist CP55,940 (0.1 nM); type: cell-based; conditions: vs CP55,940 0.1 nM (EC75-80), read-out: CB1 wt Gi2 IC50
T1 construct: expressed in transfected cells; host or cells: HEK293
T1 sequence (P21554 whole entry): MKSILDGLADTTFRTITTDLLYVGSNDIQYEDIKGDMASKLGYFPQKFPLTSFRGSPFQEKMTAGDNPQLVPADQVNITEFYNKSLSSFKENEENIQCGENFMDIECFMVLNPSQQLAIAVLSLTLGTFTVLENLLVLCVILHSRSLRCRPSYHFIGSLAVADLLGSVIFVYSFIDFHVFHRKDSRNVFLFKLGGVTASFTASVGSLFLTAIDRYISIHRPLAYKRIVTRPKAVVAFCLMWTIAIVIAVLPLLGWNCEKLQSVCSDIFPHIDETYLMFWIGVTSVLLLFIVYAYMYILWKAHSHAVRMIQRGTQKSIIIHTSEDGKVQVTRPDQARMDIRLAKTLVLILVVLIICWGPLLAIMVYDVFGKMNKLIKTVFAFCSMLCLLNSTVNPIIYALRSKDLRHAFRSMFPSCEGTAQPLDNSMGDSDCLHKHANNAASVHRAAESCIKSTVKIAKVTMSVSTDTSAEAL
Experimental: (§1) Using polyethylenimine (PEI) transfection agent, HEK293 cells were transfected in suspension with the human CB1 receptor and one of the following bioSensAll® assays: GAPL-Gi2, or β-arrestin plasma membrane (PM) translocation biosensor (+GRK2). Cells were directly seeded in 96-well plates immediately following transfection.
(§2) Cells were incubated with coelenterazine (luciferase substrate) and different test compounds prior to the measurement of BRET signals.
(§3) Used in this project are i) Gα plasma membrane (GAPL) biosensors and the ii) β-arrestin plasma membrane translocation biosensor.
i) GAPL sensors are used to monitor the activation of heterotrimeric G proteins at the plasma membrane upon receptor stimulation. Specifically, these multimolecular BRET sensors detect the plasma membrane recruitment of proteins that interact with active Gα subunits in a G protein family-selective manner. G protein activation following receptor stimulation generally leads to an increase in the BRET signal.
(§4) HEK293 cells were maintained in Dulbecco's Modified Eagle Medium (DMEM) (Wisent; cat #319-030-CL: without sodium pyruvate, with 4.5 g/L glucose, without L-glutamine) supplemented with 1% penicillin-streptomycin (Wisent; cat #450-201-EL) and 2 or 10% fetal bovine serum (Wisent cat #090150).
(§5) HEK293 cells were co-transfected with hCB1 and one of the above-listed bioSensAll® assays. For each transfection condition: • the total amount of transfected DNA was kept constant at 1 μg per mL of cell culture to be transfected; whenever necessary, salmon sperm DNA (Invitrogen, cat #15632011) was used as ‘carrier’ DNA to supplement plasmid DNA (i.e., biosensor and receptor); • the PEI (polyethylenimine 25 kDa linear, PolyScience, cat #23966) to DNA ratio (ug:ug) was fixed at 3:1.
(§6) Transfections were carried out as follows: • DNA and PEI were first diluted separately in 150 mM NaCl. The volume of the diluent in each tube corresponds to 5% of the cell culture volume to be transfected. • Once DNA and PEI were diluted, the PEI-containing solution was added to the DNA solution and the DNA/PEI mixture immediately vortexed for 5 seconds. • The DNA/PEI mixture was incubated for at least 20 minutes at room temperature to allow for the formation of DNA/PEI complexes. • During the incubation, HEK293 cells were detached, counted and re-suspended in culture medium (composition specified above). • At the end of the incubation period, the DNA/PEI mixture was added to the cells. • Cells were finally distributed in 96-well plates (White Opaque 96-well/Microplates, Greiner, cat #655083 or CulturPlate-96, White Opaque 96-well Microplate, PerkinElmer, cat #6005688) at a density of 30,000 cells per well.
(§7) At 48 hours post-transfection: • Using 450-Select TS Biotek plate washer, culture medium was aspirated and replaced with 100 μL of Hank's Balanced Salt Solution buffer (HBSS) (Wisent, cat #319-067CL: without red phenol; with sodium bicarbonate, with calcium and magnesium, with HEPES) per well. • Plates were then incubated (equilibrated) at 37° C., 5% CO2 for 60 minutes. • Increasing doses of test compounds were then added to each well using the HP D300e digital dispenser (Tecan). All compounds were assayed at the following 12 concentrations (in nM) with each biosensor: 0.000, 0.013, 0.040, 0.120, 0.320, 0.960, 2.80, 8.00, 24.0, 70.0, 205 and 600. • Three to 5 minutes later, an assay-specific effective concentration (EC)75-80 of agonist CP55,940 (i.e., 0.1 nM and 100 nM for G[…]i2-GAPL or […]Arrestin2 (+GRK2) assay, respectively) was added to wells previously injected with test compound (i.e., previous step 3). […]

human CB1 receptor [2] = molecular target: T1, human CB1 receptor; assay: bioSensAll β-arrestin2 plasma membrane translocation (+GRK2) BRET biosensor assay in HEK293 cells transfected with hCB1; test compound added before EC75-80 of agonist CP55,940 (100 nM); type: cell-based; conditions: βArrestin2 (+GRK2) BRET biosensor, vs CP55,940 100 nM (EC75-80), read-out: CB1 wt βarr2 IC50
Experimental: as §1, §2, §3
ii) The multimolecular β-arrestin membrane recruitment biosensors allow for real-time spatio-temporal monitoring of β-arrestin 1 and β-arrestin 2 following GPCR activation. Specifically, these β-arrestin sensors were designed to detect the recruitment of proteins to the plasma membrane (β-arrestin PM) with localization to compartment resulting in an increased BRET signal.
as §4, §5, §6, §7

Compound: COCCOc1nc(N2CCC(C)(C(N)=O)CC2)c2nc(-c3ccccc3Cl)n(-c3ccc(Cl)cc3)c2n1 [Compound 10, 1-[8-(2-chlorophenyl)-9-(4-chlorophenyl)-2-(2-methoxyethoxy)purin-6-yl]-4-methyl-piperidine-4-carboxamide]
- IC50 (human CB1 receptor [1]): 1.47 nM
- IC50 (human CB1 receptor [2]): 6.8 nM

Compound: Cc1cnn(-c2nc(N3CCC(C)(C(N)=O)CC3)c3nc(-c4ccccc4Cl)n(-c4ccc(Cl)cc4)c3n2)c1 [Compound 3, 1-[8-(2-chlorophenyl)-9-(4-chlorophenyl)-2-(4-methylpyrazol-1-yl)purin-6-yl]-4-methyl-piperidine-4-carboxamide]
- IC50 (human CB1 receptor [1]): 1.38 nM
- IC50 (human CB1 receptor [2]): 12.2 nM

Compound: CC1(C(N)=O)CCN(c2nc(N3CC[C@H](O)C3)nc3c2nc(-c2ccccc2Cl)n3-c2ccc(Cl)cc2)CC1 [Compound 94, 1-[8-(2-chlorophenyl)-9-(4-chlorophenyl)-2-[(3S)-3-hydroxypyrrolidin-1-yl]purin-6-yl]-4-methyl-piperidine-4-carboxamide]
- IC50 (human CB1 receptor [1]): 0.82 nM
- IC50 (human CB1 receptor [2]): 2.41 nM

Compound: CC1(C(N)=O)CCN(c2nc(OCCO)nc3c2nc(-c2ccccc2Cl)n3-c2ccc(Cl)cc2)CC1 [Compound 78, 1-[8-(2-chlorophenyl)-9-(4-chlorophenyl)-2-(2-hydroxyethoxy)purin-6-yl]-4-methyl-piperidine-4-carboxamide]
- IC50 (human CB1 receptor [1]): 0.995 nM
- IC50 (human CB1 receptor [2]): 5.68 nM

Compound: CN(CCO)c1nc(N2CCC(C)(C(N)=O)CC2)c2nc(-c3ccc(C#N)nc3)n(-c3ccc(Cl)cc3)c2n1 [Compound 65, 1-[9-(4-chlorophenyl)-8-(6-cyano-3-pyridyl)-2-[2-hydroxyethyl(methyl)amino]purin-6-yl]-4-methyl-piperidine-4-carboxamide]
- IC50 (human CB1 receptor [1]): 0.534 nM
- IC50 (human CB1 receptor [2]): 1.7 nM

Compound: C[C@H](O)CNc1nc(N2CCC(C)(C(N)=O)CC2)c2nc(-c3ccccc3Cl)n(-c3ccc(Cl)cc3)c2n1 [Compound 84, 1-[8-(2-chlorophenyl)-9-(4-chlorophenyl)-2-[[(2S)-2-hydroxypropyl]amino]purin-6-yl]-4-methyl-piperidine-4-carboxamide]
- IC50 (human CB1 receptor [1]): 2.1 nM
- IC50 (human CB1 receptor [2]): 11.7 nM

Compound: CC(=O)NC(=N)Nc1nc(N2CCC(C(F)(F)F)CC2)c2nc(-c3ccccc3Cl)n(-c3ccc(Cl)cc3)c2n1 [Compound 34, N—[N-[8-(2-chlorophenyl)-9-(4-chlorophenyl)-6-[4-(trifluoromethyl)-1-piperidyl]purin-2-yl]carbamimidoyl]acetamide]
- IC50 (human CB1 receptor [1]): 6.62 nM
- IC50 (human CB1 receptor [2]): 17.6 nM

Compound: CN(CCO)c1nc(N(C)C2CCOC2)c2nc(-c3ccccc3Cl)n(-c3ccc(Cl)cc3)c2n1 (stereo not shown) [Compound 197]
- IC50 (human CB1 receptor [1]): 0.161 nM
- IC50 (human CB1 receptor [2]): 1.19 nM

Compound: CC1(C(N)=O)CCN(c2nc(N3CCC[C@H]3CO)nc3c2nc(-c2cccc(C#N)c2)n3-c2ccc(Cl)cc2)CC1 [Compound 37, 1-[9-(4-chlorophenyl)-8-(3-cyanophenyl)-2-[(2S)-2-(hydroxymethyl)pyrrolidin-1-yl]purin-6-yl]-4-methyl-piperidine-4-carboxamide]
- IC50 (human CB1 receptor [1]): 7.39 nM
- IC50 (human CB1 receptor [2]): 60.5 nM

Compound: CCNC1(C(N)=O)CCN(c2nc(C#N)nc3c2nc(-c2ccccc2Cl)n3-c2ccc(Cl)cc2)CC1 [Compound 146, 1-(8-(2-chlorophenyl)-9-(4-chlorophenyl)-2-cyano-9H-purin-6-yl)-4-(ethylamino)piperidine-4-carboxamide]
- IC50 (human CB1 receptor [1]): 0.718 nM
- IC50 (human CB1 receptor [2]): 1.62 nM

Compound: FC(F)(F)C1CCN(c2nc(OCCNCc3ccccc3)nc3c2nc(-c2ccccc2Cl)n3-c2ccc(Cl)cc2)CC1 [Compound 62, N-benzyl-2-[8-(2-chlorophenyl)-9-(4-chlorophenyl)-6-[4-(trifluoromethyl)-1-piperidyl]purin-2-yl]oxy-ethanamine]
- IC50 (human CB1 receptor [1]): 6.14 nM
- IC50 (human CB1 receptor [2]): 7.62 nM

Compound: FC(F)(F)C1CCN(c2nc(N3C[C@H]4C[C@H]4C3)nc3c2nc(-c2ccccc2Cl)n3-c2ccc(Cl)cc2)CC1 [Compound 31, 2-[(1R,5S)-3-azabicyclo[3.1.0]hexan-3-yl]-8-(2-chlorophenyl)-9-(4-chlorophenyl)-6-[4-(trifluoromethyl)-1-piperidyl]purine]
- IC50 (human CB1 receptor [1]): 2.76 nM
- IC50 (human CB1 receptor [2]): 21.8 nM

Compound: CCNC1(C(N)=O)CCN(c2nc(NCCO)nc3c2nc(-c2ccccc2Cl)n3-c2ccc(Cl)cc2)CC1 [Compound 141]
- IC50 (human CB1 receptor [1]): 0.982 nM
- IC50 (human CB1 receptor [2]): 2.28 nM

Compound: CC1(C(N)=O)CCN(c2nc(-c3cnc[nH]3)nc3c2nc(-c2ccccc2Cl)n3-c2ccc(Cl)cc2)CC1 [Compound 45]
- IC50 (human CB1 receptor [1]): 5.85 nM
- IC50 (human CB1 receptor [2]): 39.9 nM

Compound: CN1CCC[C@H]1COc1nc(N2CCC(C)(C(N)=O)CC2)c2nc(-c3ccccc3Cl)n(-c3ccc(Cl)cc3)c2n1 [Compound 117, 1-[8-(2-chlorophenyl)-9-(4-chlorophenyl)-2-[[(2S)-1-methylpyrrolidin-2-yl]methoxy]purin-6-yl]-4-methyl-piperidine-4-carboxamide]
- IC50 (human CB1 receptor [1]): 1.64 nM
- IC50 (human CB1 receptor [2]): 3.76 nM

Compound: CCNC1(C(N)=O)CCN(c2nc(Cl)nc3c2nc(-c2ccccc2Cl)n3-c2ccc(Cl)cc2)CC1 [Compound 144, 1-(2-chloro-8-(2-chlorophenyl)-9-(4-chlorophenyl)-9H-purin-6-yl)-4-(ethylamino)piperidine-4-carboxamide]
- IC50 (human CB1 receptor [1]): 1.35 nM
- IC50 (human CB1 receptor [2]): 6.22 nM

Compound: CCOC1(C(N)=O)CCN(c2nc(OCC(C)(C)O)nc3c2nc(-c2ccc(C#N)nc2)n3-c2ccc(Cl)cc2)CC1 [Compound 120, 1-[9-(4-chlorophenyl)-8-(6-cyano-3-pyridyl)-2-(2-hydroxy-2-methyl-propoxy)purin-6-yl]-4-ethoxy-piperidine-4-carboxamide]
- IC50 (human CB1 receptor [1]): 16.9 nM
- IC50 (human CB1 receptor [2]): 25.4 nM

Compound: CC(C)(O)COc1nc(N2CC(C)(C(N)=O)C2)c2nc(-c3ccc(C#N)nc3)n(-c3ccc(Cl)cc3)c2n1 [Compound 138]
- IC50 (human CB1 receptor [1]): 34.1 nM
- IC50 (human CB1 receptor [2]): > 5000 nM

Compound: CN(CCO)c1nc(N2CCC(C)(C(N)=O)CC2)c2nc(-c3ccncc3)n(-c3ccc(Cl)cc3)c2n1 [Compound 52, 1-[9-(4-chlorophenyl)-2-[2-hydroxyethyl(methyl)amino]-8-(4-pyridyl)purin-6-yl]-4-methyl-piperidine-4-carboxamide]
- IC50 (human CB1 receptor [1]): 2.06 nM
- IC50 (human CB1 receptor [2]): 29.1 nM

Compound: CC(C)(O)COc1nc(N2CCC(C)(C(N)=O)CC2)c2nc(-c3cccnc3)n(-c3ccc(Cl)cc3)c2n1 [Compound 103, 1-[9-(4-chlorophenyl)-2-(2-hydroxy-2-methyl-propoxy)-8-(3-pyridyl)purin-6-yl]-4-methyl-piperidine-4-carboxamide]
- IC50 (human CB1 receptor [1]): 131 nM
- IC50 (human CB1 receptor [2]): > 5000 nM

Compound: CC(C)(O)COc1nc(N2CCC(C)(C(N)=O)CC2)c2nc(-c3ccccc3Cl)n(-c3ccc(Cl)cc3)c2n1 [Compound 9, 1-[8-(2-chlorophenyl)-9-(4-chlorophenyl)-2-(2-hydroxy-2-methyl-propoxy)purin-6-yl]-4-methyl-piperidine-4-carboxamide]
- IC50 (human CB1 receptor [1]): 0.398 nM
- IC50 (human CB1 receptor [2]): 2.92 nM

Compound: CN(CCO)c1nc(N2CC(C)(C(N)=O)C2)c2nc(-c3ccccc3Cl)n(-c3ccc(Cl)cc3)c2n1 [Compound 73]
- IC50 (human CB1 receptor [1]): 0.556 nM
- IC50 (human CB1 receptor [2]): 1.77 nM

Compound: CCOC(=O)c1cn(-c2nc(N3CCC(C)(C(N)=O)CC3)c3nc(-c4ccccc4Cl)n(-c4ccc(Cl)cc4)c3n2)cn1 [Compound 69, ethyl 1-[6-(4-carbamoyl-4-methyl-1-piperidyl)-8-(2-chlorophenyl)-9-(4-chlorophenyl)purin-2-yl]imidazole-4-carboxylate]
- IC50 (human CB1 receptor [1]): 41.9 nM
- IC50 (human CB1 receptor [2]): 117 nM
